# Data as given in ChEMBL document CHEMBL1154058, “Identification of novel serotonin 2C receptor ligands by sequential virtual screening” (Bioorg Med Chem, 2009).
# Target: T1, 5-hydroxytryptamine receptor 2C (Homo sapiens, UniProt P28335)
# T1 sequence (P28335 whole entry): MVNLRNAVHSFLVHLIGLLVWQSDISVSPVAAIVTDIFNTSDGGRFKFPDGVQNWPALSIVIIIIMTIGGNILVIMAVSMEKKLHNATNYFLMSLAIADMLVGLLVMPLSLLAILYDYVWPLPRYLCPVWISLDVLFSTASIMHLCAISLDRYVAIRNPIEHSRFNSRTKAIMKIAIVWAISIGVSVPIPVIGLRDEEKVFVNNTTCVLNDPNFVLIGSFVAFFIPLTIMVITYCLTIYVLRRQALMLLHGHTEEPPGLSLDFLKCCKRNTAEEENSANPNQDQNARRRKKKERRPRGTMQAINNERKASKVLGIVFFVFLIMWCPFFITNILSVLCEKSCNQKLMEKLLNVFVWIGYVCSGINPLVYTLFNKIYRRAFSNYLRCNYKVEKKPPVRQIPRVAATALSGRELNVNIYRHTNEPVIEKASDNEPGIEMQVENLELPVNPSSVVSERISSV
# Test: Displacement of [3H]Mesulergine from human recombinant serotonin 5-HT2C expressed in CHO-K1 cells
# Format: cell-based
row,SMILES,IC50 [µM]
1,Cc1ccccc1NC(=O)N1CCN2CCCCC2C1 (configuration not stated),> 10
2,Cc1ccc(C2=NC3(CCNCC3)NC2=O)cc1C,> 10
3,CN(C)CCNC(=O)c1nc(-c2cccnc2)no1,> 10
4,Cn1c(=O)n(C)c2cc(CNCCN3CCOCC3)ccc21,> 10
5,CCc1nnc2c(NCCC3=CCCCC3)nc3ccccc3n12,> 10
6,Cc1cccc(CN2CCNC(=O)C2CC(=O)O)c1 (configuration not stated),> 10
7,CCn1ncc(C2=NOC(C(=O)NCCN3CCOCC3)C2)c1C (configuration not stated),> 10
8,CCc1ccccc1NC(=O)CC1NCCNC1=O (configuration not stated),> 10
9,CN1CCN(CCNC(=O)c2cc3ccc4cccnc4c3[nH]2)CC1,> 10
10,Cc1noc2ncnc(NCCN3CCOCC3)c12,> 10
11,Cc1ccc(NC(=O)N2CCN3CCCCC3C2)cc1C (configuration not stated),> 10
12,Cc1ccc(CCNc2nc3ccc(C)cc3n3nnnc23)cc1,> 10
13,CCN(CC)CCn1c(NCc2ccncc2)nc2ccccc21,> 10
14,Cc1noc(C(=O)NCCN2CCOCC2)c1Cl,> 10
15,CCOC(=O)c1c(C)oc2ncnc(NCCN3CCOCC3)c12,> 10
16,Cc1nnc(SCc2cc(=O)n3nc(C4CC4)sc3n2)[nH]1,> 10
17,CC1CCCCN1CCNC(=O)c1noc2c1CCc1sccc1-2 (configuration not stated),> 10
18,COc1cc2c(cc1OC)C1CCCN1C(C)(C)C2 (configuration not stated),> 10
19,Cc1cc(C(=O)NCCN2CCOCC2)on1,> 10

# Results, then the compound that gave them:
row,IC50 [µM],SMILES
1,9.22,CCC(=O)Nc1nn2c(-c3cccc(C)c3)nnc2s1
2,2.73,CC(=O)N(CCN(C)C)c1nc2cc3c(cc2s1)OCO3
3,> 10,Cn1ncc2c(Nc3ccc(F)cc3)nc(NCCN3CCOCC3)nc21
4,0.589,COC(=O)c1cnn2c(O)nc(C3CCNCC3)nc12
5,> 10,COc1ccc2c3c([nH]c2c1)[C@@](C)(C(=O)O)NCC3
6,0.222,CN(C)CCNC(=O)c1ccc(-n2ccc3ccccc32)s1
7,> 10,CCCNc1nc(Nc2ccccc2)c2cnn(C)c2n1
8,4.48,CCOC(=O)C1=CCc2nc(C)nc(NCCN(C)C)c21
9,> 10,CCNc1nc(Nc2ccc(F)cc2)c2cnn(C)c2n1
10,2,CC(=O)N(CCN(C)C)c1nc2c(F)cccc2s1
11,> 10,COCCNc1nc(Nc2ccc(F)cc2)c2cnn(C)c2n1
12,5.63,CCN1Cc2cccc(CNc3ccc(C)c(F)c3)c2C1
13,> 10,COCCCNc1nc(Nc2ccc(F)cc2)c2cnn(C)c2n1
14,> 10,C=CCNc1nc(Nc2ccc(F)cc2)c2cnn(C)c2n1
15,> 10,Cn1ncc2c(Nc3ccc(F)cc3)nc(NC3CCCC3)nc21
16,> 10,CCCNc1nc2ccc(C)cc2n2nnnc12
17,5.29,CC(=O)Nc1c(C(=O)N2CCN(C)CC2)oc2ccccc12
18,2.05,CCOC(=O)c1noc2ncnc(N3CCN(C)CC3)c12
19,4.17,CCCCN(C)CCNc1nc(C)nc2oc(C)c(C(=O)OCC)c12
20,> 10,Cc1cccc(C(=O)Nc2nn3c(-c4ccccc4C)nnc3s2)c1
21,8.93,Cc1ccc2onc(CNC(=O)N3CCN(C)CC3)c2c1
22,> 10,Cn1ncc2c(Nc3ccc(F)cc3)nc(NCCCO)nc21
23,0.424,CN(C)CCNC(=O)c1cc2ccccc2[nH]1
24,> 10,CCNc1nc(Nc2ccccc2)c2cnn(C)c2n1
25,5.11,CCc1nnc2c(NC)nc3ccccc3n12

# Target: T1, 5-hydroxytryptamine receptor 2C
# Test: Binding affinity to 5-HT2C receptor
row,SMILES,Ki [nM]
1,C[C@@H]1CNC[C@H]2Cc3ccc(COCC4CC4)nc3N21,4
2,O=C1Nc2cc(Cl)c(Cl)cc2N2CCNC[C@H]12,3.3
3,Clc1ccc(Cl)c(-c2ccnc(N3C[C@@H]4CCN[C@@H]4C3)n2)c1,> 20000
4,Clc1cccc(COc2cncc(N3CCNCC3)n2)c1,1
5,C[C@@H]1CN(c2ccc(C(F)(F)F)c3ccoc23)CCN1,2.4
6,Fc1cccc(F)c1-c1cc2c3c(c1)[C@H]1CNCC[C@H]1N3CCCS2,5.2
7,C[C@@H](N)Cn1ccc2cc(F)c(Cl)cc21,1
8,CCc1cc2c(ccc3cnn(C[C@@H](C)N)c32)o1,0.89
